Source: patent US4536502A (priority 1982, dated 1985)

Tests used:
Peronospora tabacina = experiment: Greenhouse test on tobacco mildew; assay type: in vivo, Peronospora tabacina (on Nicotiana tabacum, Samson variety); conditions: for inhibition at 500 µg/mL: dose of 500 mg/liter; for inhibition at 15 µg/mL: dose of 15 mg/liter
Source text: Greenhouse test on tobacco mildew
The procedure of the previous example is followed, except that the plants are tobacco plants (Nicotiana tabacum) of the Samson variety, and that these plants are contaminated with spores of Peronospora tabacina, which is responsible for tobacco mildew.
Under these conditions, it was observed that, for the compounds or mixtures of compounds described in the above examples, the minimum inhibitory concentrations causing from 95 to 100% inhibition of the fungus in question (MIC 95-100) are respectively as follows:
In this experiment, the observed percentage inhibition of the development of the fungus in question was between 20% and 90%: […]

Phytophthora infestans = experiment: whole plant or invertebrate; assay type: in vivo; conditions: in Solanum lycopersicum, read-out: percentage inhibition of the development of the fungus
[1] = test system: Tetranychus urticae koch, parthenogenetic females; experiment: Acaricidal activity by contact-ingestion; assay type: in vivo; conditions: bean leaves treated by dipping, three days after contamination, average of two experiments
Method: Acaricidal activity by contact-ingestion
(foliage treated by dipping: Tetranychus urticae koch, parthenogenetic females).
An aqueous emulsion of the active ingredient to be tested is prepared by grinding the latter, in a Potter mill, in water containing 0.02% of Tween 80. The aqueous emulsion is then brought to the desired concentration by dilution with water containing 0.01% of Scurol O.
Bean plants (Phaseolus vulgaris--Contender variety) at the "cotyledonary leaf" stage are used. Each plant is treated by dipping the leaves for 10 seconds in the aqueous emulsion containing the active ingredient to be tested, at the desired concentration, two plants being used for each concentration. The experiment was carried out for active ingredient concentrations ranging from 2,000 mg/liter to 10 mg/liter. The bean plants are kept alive by immersing the roots and the base of the stem in distilled water.
After the surface of the foliage has dried, contamination is carried out by depositing, on each bean leaf, a highly contaminated leaf fragment produced by mite breeding. This leaf fragment is removed after 24 hours.
Three days after contamination, the number of dead mites and the number of living mites are counted under a binocular magnifying glass.
The percentage mortality is thus determined for each concentration (average of two experiments). […]

[2] = read-out: percentage inhibition of the development of the fungus

In the case of CN(C)S(=O)(=O)n1c(C#N)nc2c(N)cccc21 [Compound 42], the inhibition at 500 µg/mL (Peronospora tabacina; [2]) is reported as 20 to 90%.
For CN(C)S(=O)(=O)n1c(C#N)nc2c(Br)cc(Br)cc21 [Compound 39], the inhibition at 8 µg/mL (Phytophthora infestans) was 20 to 90%.
With CN(C)S(=O)(=O)n1c(C#N)nc2c(C(F)(F)F)cc(Cl)cc21 [Compound 61] the “LC90, concentration which causes 90% mortality of the mites” value [1] was 2,000 mg/liter.
COc1cc2c(nc(C#N)n2S(=O)(=O)N(C)C)c([N+](=O)[O-])c1OC [Compound 28] gave an inhibition at 500 µg/mL (Phytophthora infestans) of 20 to 90% and an inhibition at 500 µg/mL (Peronospora tabacina; [2]) of 20 to 90%.
Work on CN(C)S(=O)(=O)n1c(C#N)nc2c(Cl)c(Cl)ccc21 [Compound 45] yielded an inhibition at 4 µg/mL (Phytophthora infestans) of 20 to 90%.
Work on Cc1cc(Br)cc2c1nc(C#N)n2S(=O)(=O)N(C)C [Compound 43] yielded an inhibition at 500 µg/mL (Phytophthora infestans) of 20 to 90%.
Work on CC(C)S(=O)(=O)n1c(C#N)nc2c(Cl)cccc21 [Compound 21] yielded an inhibition at 8 µg/mL (Peronospora tabacina; dose of 8 mg/liter, read-out: percentage inhibition of the development of the fungus) of 20 to 90%.
For CS(=O)(=O)n1c(C#N)nc2ccccc21 [Compound 16], the inhibition at 15 µg/mL (Peronospora tabacina; [2]) was 20 to 90%.
Cc1c([N+](=O)[O-])ccc2c1nc(C#N)n2S(=O)(=O)N(C)C [Compound 64] gave an inhibition at 15 µg/mL (Peronospora tabacina; [2]) of 20 to 90%.
For CC(C)S(=O)(=O)n1c(C#N)nc2ccccc21 [Compound 22], the inhibition at 15 µg/mL (Peronospora tabacina; [2]) was 20 to 90%.
With CN(C)S(=O)(=O)n1c(C#N)nc2c(C(F)(F)F)cc(C(F)(F)F)cc21 [Compound 70] the “LC90, concentration which causes 90% mortality of the mites” value [1] was 10 mg/L.
For Cc1c(Cl)ccc2c1nc(C#N)n2S(=O)(=O)N(C)C [Compound 50], the inhibition at 500 µg/mL (Phytophthora infestans) was 20 to 90%.
With Cc1cc2nc(C#N)n(S(=O)(=O)N(C)C)c2cc1C [Compound 8] the inhibition at 500 µg/mL (Phytophthora infestans) was 20 to 90%.
For CS(=O)(=O)n1c(C#N)nc2c(Cl)cc(Cl)cc21 [Compound 17], the inhibition at 15 µg/mL (Phytophthora infestans) was 20 to 90%.
With N#Cc1nc2c(Cl)cc(Cl)cc2n1S(=O)(=O)N1CCCC1 [Compound 57] the inhibition at 15 µg/mL (Peronospora tabacina; [2]) was 20 to 90%.
Work on N#Cc1nc2ccccc2[nH]1 [2-Cyanobenzimidazole, 2-cyanobenzimidazole, reference compound] yielded an inhibition at 1000 µg/mL (Peronospora tabacina; dose of 1,000 mg/liter, read-out: % inhibition (antifungal activity)) of 0%.
For CN(C)S(=O)(=O)n1c(C#N)nc2cc(C(C)(C)C)ccc21 [Compound 11], the inhibition at 500 µg/mL (Phytophthora infestans) was 20 to 90%.
